Measured values as given in US12508239B2, “Alcohol derivatives as Kv7 potassium channel openers for use in epilepsy or seizures” (H. Lundbeck A/S, priority 2019, dated 2025).

Columns and labels:
[1] = target: T1, hKv7.2/hKv7.3 (Homo sapiens, UniProt O43525+O43526); test: Thallium influx assay for potassium channel activation; format: cell-based; conditions: HEK-hKv7.2/hKv7.3 cells; AUC readout normalized to a reference compound
T1 construct: P2A self-cleaving linker (remnant after ribosomal skipping); expressed in transfected cells; vector pcDNA5/FRT/TO
Procedure: (§1) A synthesized cDNA fragment encoding human Kv7.3 and human Kv7.2 separated by a P2A sequence was inserted into the pcDNA5/FRT/TO vector using the BamHI and XhoI restriction sites. The construct was then transfected into HEK Flp-In 293 cells using Lipofectamine2000. The transfected cells were grown for 48 hours in DMEM containing 10% (v/v) FBS and 1% PenStrep and subsequently maintained under selection in DMEM containing 10% (v/v) FBS, 1% PenStrep and 200 ug/mL Hygromycin B at 37° C. in a humidified atmosphere of 5% CO2.
The thallium influx assay for potassium channel activation was performed analogously to a published procedure (C. D. Weaver, et al., J Biomol Screen 2004, 9, 671-677) using the FLIPR Potassium Assay kit (Molecular Devices). HEK-hKv7.2/hKv7.3 cells were plated onto 96-well, black-walled, clear-bottomed culture plates (Corning, Acton, MA, USA) at a density of 80,000 cells/well (100 μl/well) if the cells were assayed the following day, or 40,000 cells/well (100 μl/well) if the cells were assayed two days after seeding.
On the assay day, the medium was removed after which 50 uL/well of test compound diluted to 2× final concentration in HBSS containing 20 mM HEPES, and 50 uL/well of 2× dye load buffer were added. The cells were then incubated for 60 min at room temperature in the dark. Chloride-free stimulation buffer containing Tl^+ and K^+ at 5× final concentration (5× concentration: 5 mM in both cases) and test compound at 1× final concentration, were prepared during the incubation. The cells were then assayed in a FDSS7000EX Functional Drug Screening System (Hamamatsu). Following 60 sec of baseline fluorescence signal reading at 0.1 Hz, and 10 sec at 1 Hz, 25 uL/well of stimulation buffer were added and the fluorescence continuously measured for 50 sec at 1 Hz followed, by 4 min at 0.1 Hz. Compound effect was quantified using AUC as readout and normalized to a reference compound, which was included on each plate.

[2] = target: T1, hKv7.2/hKv7.3; test: Automated whole cell patch-clamp of stable HEK-hKv7.2/hKv7.3 cell line; format: cell-based; conditions: functional test of the cell line
Procedure: as §1

[3] = system: mice; test: Maximal electroshock seizure threshold test (MEST) in mice; format: in vivo, mouse; conditions: corneal electrodes
Procedure: (§2) Significant differences between drug-treated animals and controls were assessed according to Litchfield and Wilcoxon, Pharmacol Exp Ther. 1949; 96(1):99-113

[4] = system: rats; test: Maximal electroshock seizure threshold test (MEST) in rats; format: in vivo, rat; conditions: for seizure threshold: rats
Procedure: as §2

C[C@H](NC(=O)C[C@@](C)(O)CC(F)(F)F)c1cccc(OC(F)(F)F)c1 (single isomer, unassigned) [Example 13a]
EC50 [1]: 1900 nM

C[C@H](NC(=O)C[C@H](O)C1CC(F)(F)C1)c1cccc(OC(F)(F)F)c1 [Example 11a, 3-(3,3-Difluorocyclobutyl)-3-hydroxy-N—((S)-1-(3-(trifluoromethoxy)phenyl)ethyl) propanamide]
EC50 [1]: 1500 nM

CCOC(=O)Nc1ccc(NCc2ccc(F)cc2)cc1N [Retigabine, N-(2-amino-4-(4-fluorobenzylamino)-phenyl) carbamic acid ethyl ester]
effect on Kv7-current [2]: potentiated

C[C@H](NC(=O)CC(C)(O)C(F)(F)C(F)F)c1cccc(OC(F)(F)F)c1 (single isomer, unassigned) [Example 10a]
EC50 [1]: 650 nM

C[C@H](NC(=O)CC1(O)CC(F)(F)C1)c1cccc(OC(F)(F)F)c1 [Example 5, (S)-2-(3,3-difluoro-1-hydroxycyclobutyl)-N-(1-(3-(trifluoromethoxy)phenyl)ethyl) acetamide]
current required to induce an electroconvulsion, i.e. seizure threshold [3]: dose-dependent significant increase | seizure threshold CC50 (current producing tonic hind limb extensor seizures in 50% of animals) ([4]; rat, acute peroral administration 30 min prior to test, all doses tested 0.03-1 mg/kg, relative to vehicle): significantly increased | seizure threshold ([4]; pretreatment with a single acute administration): significant increase | seizure threshold ([4]; repeated administration (once daily, 15 days)): significant increase

O=C1c2ccccc2C(Cc2ccncc2)(Cc2ccncc2)c2ccccc21 [XE991]
effect on Kv7-current [2]: sensitive
